Assay results from ChEMBL document CHEMBL3137667, “[Drug-induced liver injury; fourteenth updated edition of the bibliographic database of liver injuries and related drugs]” (Gastroenterol Clin Biol, 2004).

Key:
[1] = Highest frequency of moderate liver toxicity observed during clinical trials, expressed as a percentage. [column '% BIOL' in source]; details: human
[2] = Highest frequency of acute liver toxicity observed during clinical trials, expressed as a percentage. [column '% AIGUE' in source]; details: human
[3] = human, serum
[4] = human, serum; remark: listed apart in the source
[5] = human
[6] = human; remark: listed apart in the source
[7] = human; remark: listed apart in the source
[8] = human, serum, 4383 h
[9] = human; remark: listed apart in the source
[10] = human; remark: listed apart in the source
[11] = human; remark: listed apart in the source
[12] = human; remark: listed apart in the source
[13] = human; remark: listed apart in the source
[14] = human; remark: listed apart in the source
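For Hepatotoxicity (association with vascular disease) in this document: count of indexed literature references reporting vascular liver injury in humans, e.g. peliosis hepatitis, hepatic veno-occlusive disease or Budd-Chiari syndrome.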
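For Hepatotoxicity (benign tumour) in this document: value is a count of indexed literature references citing a benign tumour confirmed by histopathology.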
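For Hepatotoxicity (choleostasis) in this document: human cholestatic liver injury, shown by histopathology or by peak ALT or AST elevation over alkaline phosphatase ratio below 2, value counts indexed literature reports.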
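For Hepatotoxicity (chronic liver disease) in this document: chronic liver injury confirmed by histopathology or persistently raised serum aminotransferase activity beyond 6 months, value given as the count of indexed literature references.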
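For Hepatotoxicity (cirrhosis) in this document: value is a count of indexed literature references reporting cirrhosis confirmed by histopathology.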
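For Hepatotoxicity (cytolytic) in this document: human cytolytic liver injury, shown by histopathology or by a ratio above 5 of peak ALT or AST elevation to alkaline phosphatase elevation, value counts indexed references.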
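For Hepatotoxicity (granulomatous hepatitis) in this document: value is a count of indexed literature references reporting granulomatous liver disease confirmed by histopathology.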
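For Hepatotoxicity (malignant tumour) in this document: malignant tumour confirmed by histopathology, value gives the count of indexed literature references reporting it.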
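For Hepatotoxicity (severe hepatitis) in this document: human clinical data: severe hepatitis, meaning potentially life-threatening liver failure or clinically observed cases, the value counts how many indexed literature references report it.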
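For Hepatotoxicity (steatosis) in this document: steatosis confirmed by histopathology, value is the count of indexed references.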

Structure (SMILES) | Hepatotoxicity (moderate) [1] [%] | Hepatotoxicity (acute) [2] [%] | Hepatotoxicity (moderate) [3] | Hepatotoxicity (acute) [4] | Hepatotoxicity (cytolytic) [5] | Hepatotoxicity (choleostasis) [6] | Hepatotoxicity (severe hepatitis) [7] | Hepatotoxicity (chronic liver disease) [8] | Hepatotoxicity (cirrhosis) [9] | Hepatotoxicity (granulomatous hepatitis) [10] | Hepatotoxicity (association with vascular disease) [11] | Hepatotoxicity (steatosis) [12] | Hepatotoxicity (malignant tumour) [13] | Hepatotoxicity (benign tumour) [14]
O=C(O)Cn1c(=O)n(Cc2ccc(Br)cc2F)c(=O)c2ccc(Cl)cc21 [ZENARESTAT] | 9.5 | 0 | 1 | 0 | 0 | 0 | 0 | 0 | 0 | 0 | 0 | 0 | 0 | 0
O=C1Cc2cc(CCN3CCN(c4nsc5ccccc45)CC3)c(Cl)cc2N1 [ZIPRASIDONE] | 1.2 | 0 | 1 | 0 | 0 | 0 | 0 | 0 | 0 | 0 | 0 | 0 | 0 | 0
C[C@H](CSC(=O)c1ccccc1)C(=O)N1C[C@@H](Sc2ccccc2)C[C@H]1C(=O)O [ZOFENOPRIL] | 5.3 | 0 | 1 | 0 | 0 | 0 | 0 | 0 | 0 | 0 | 0 | 0 | 0 | 0
CN(C)CCc1c[nH]c2ccc(C[C@H]3COC(=O)N3)cc12 [ZOLMITRIPTAN] | 0 | 0 | 1 | 0 | 0 | 0 | 0 | 0 | 0 | 0 | 0 | 0 | 0 | 0
NS(=O)(=O)Cc1noc2ccccc12 [ZONISAMIDE] | 4.2 | 0 | 2 | 0 | 0 | 0 | 0 | 0 | 0 | 0 | 0 | 0 | 0 | 0
O=C(O)Cc1nn(Cc2nc3cc(C(F)(F)F)ccc3s2)c(=O)c2ccccc12 [ZOPOLRESTAT] | 11.6 | 0 | 1 | 0 | 0 | 0 | 0 | 0 | 0 | 0 | 0 | 0 | 0 | 0
COc1cccc2c1C(=O)c1c(O)c3c(c(O)c1C2=O)C[C@@](O)(/C(C)=N/NC(=O)c1ccccc1)C[C@@H]3O[C@H]1C[C@H](N)[C@H](O)[C@H](C)O1 [ZORUBICIN] | 51.7 | 17.2 | 1 | 1 | 0 | 1 | 1 | 0 | 0 | 0 | 0 | 0 | 0 | 0
CN(C)CCOC1=Cc2ccccc2Sc2ccc(Cl)cc21 [ZOTEPINE] | 34.8 | 0 | 8 | 0 | 0 | 0 | 0 | 0 | 0 | 0 | 0 | 0 | 0 | 0
